Measured values as given in US10183962B2, “Synthetic oligomers of Neisseria meningitis serogroup X and process of preparing them” (MSD WELLCOME TRUST HILLEMAN LA[…]. LTD., priority 2014, dated 2019).

Tested on: rabbit antiserum against N. meningitidis serogroup X (anti-Men-X antibodies binding to bacterial Men-X polysaccharide)
Assay: competition (inhibition) ELISA, antigenicity of synthetic Men-X tetramer and its TT conjugate
Details: antigen at 10-1000 μg oligosaccharide/ml; antiserum diluted eight thousand fold; relative to no antigen control; FIG. 1, alpha anomer, triplicate

Substance: 6-Aminohexyl (2-acetamido-2-deoxy-α-D-glucopyranosyl phosphate)-(1→4)-(2-acetamido-2-deoxy-α-D-glucopyranosyl phosphate)-(1→4)-(2-acetamido-2-deoxy-α-D-glucopyranosyl phosphate)-(1→4)-2-acetamido-2-deoxy-α-D-glucopyranoside, tris-sodium salt [Men X Tetramer 1]
- percentage inhibition of binding of anti-Men-X antibodies to bacterial Men-X polysaccharide coated on plate: up to 68%
